Results from BigSolDB 2.1.

O=C(O)CNCc1ccccc1
solubility (mole fraction)
Settings	283.15 K	288.15 K	293.15 K	298.15 K	303.15 K	313.15 K	323.15 K
in 1,4-dioxane	3.3e-05	–	5.5e-05	–	8.4e-05	0.00015	0.000211
in acetone	7.1e-05	–	9.4e-05	–	0.000133	0.000165	0.00024
in acetonitrile	5e-06	–	1.1e-05	–	1.7e-05	2.8e-05	4e-05
in dichloromethane	9e-06	2.1e-05	3.4e-05	4.2e-05	5.7e-05	–	–
in ethanol	0.000222	–	0.000326	–	0.00043	0.000526	0.000709
in ethyl acetate	1.1e-05	–	3.3e-05	–	6.7e-05	0.000102	0.000173
in isopropanol	6e-05	–	8e-05	–	9.6e-05	0.00012	0.000173
in methanol	0.00217	–	0.00269	–	0.00335	0.00416	0.0053
in n-butanol	0.000166	–	0.000203	–	0.000262	0.000338	0.000397
in n-propanol	0.000214	–	0.000266	–	0.000306	0.00037	0.000456
in water	0.00909	–	0.0113	–	0.014	0.0169	0.0214
